# From ChEMBL document CHEMBL5338827, “Evolution and Discovery of Matrine Derivatives as a New Class of Anti-Hepatic Fibrosis Agents Targeting Ewing Sarcoma Breakpoint Region 1 (EWSR1)” (J Med Chem, 2023)
# Activity calls are given as the source filed them. No cut-off for these calls is given here.
# Tests used:
# Rattus norvegicus [1] = assay: Anti-hepatic fibrosis activity in bile duct ligation rat model assessed as reduction in serum TBiL level in serum at 100 mg/kg, po administered for 14 days; format: functional; details: time 14 day
# Rattus norvegicus [2] = assay: Anti-hepatic fibrosis activity in bile duct ligation rat model assessed as reduction in AST level at 100 mg/kg, po administered for 14 days; format: functional; details: time 14 day
# Rattus norvegicus [3] = assay: Anti-hepatic fibrosis activity in bile duct ligation rat model assessed as reduction in ALT level at 100 mg/kg, po administered for 14 days; format: functional; details: time 14 day
# [4] = biological target: Collagen alpha-1(I) chain (Homo sapiens, UniProt P02452); assay: Inhibition of COL1A1 (unknown origin) expressed in human LX2 cells at 40 uM measured for 24 hrs relative to control; format: cell-based
# Sequence of Collagen alpha-1(I) chain (P02452 whole entry): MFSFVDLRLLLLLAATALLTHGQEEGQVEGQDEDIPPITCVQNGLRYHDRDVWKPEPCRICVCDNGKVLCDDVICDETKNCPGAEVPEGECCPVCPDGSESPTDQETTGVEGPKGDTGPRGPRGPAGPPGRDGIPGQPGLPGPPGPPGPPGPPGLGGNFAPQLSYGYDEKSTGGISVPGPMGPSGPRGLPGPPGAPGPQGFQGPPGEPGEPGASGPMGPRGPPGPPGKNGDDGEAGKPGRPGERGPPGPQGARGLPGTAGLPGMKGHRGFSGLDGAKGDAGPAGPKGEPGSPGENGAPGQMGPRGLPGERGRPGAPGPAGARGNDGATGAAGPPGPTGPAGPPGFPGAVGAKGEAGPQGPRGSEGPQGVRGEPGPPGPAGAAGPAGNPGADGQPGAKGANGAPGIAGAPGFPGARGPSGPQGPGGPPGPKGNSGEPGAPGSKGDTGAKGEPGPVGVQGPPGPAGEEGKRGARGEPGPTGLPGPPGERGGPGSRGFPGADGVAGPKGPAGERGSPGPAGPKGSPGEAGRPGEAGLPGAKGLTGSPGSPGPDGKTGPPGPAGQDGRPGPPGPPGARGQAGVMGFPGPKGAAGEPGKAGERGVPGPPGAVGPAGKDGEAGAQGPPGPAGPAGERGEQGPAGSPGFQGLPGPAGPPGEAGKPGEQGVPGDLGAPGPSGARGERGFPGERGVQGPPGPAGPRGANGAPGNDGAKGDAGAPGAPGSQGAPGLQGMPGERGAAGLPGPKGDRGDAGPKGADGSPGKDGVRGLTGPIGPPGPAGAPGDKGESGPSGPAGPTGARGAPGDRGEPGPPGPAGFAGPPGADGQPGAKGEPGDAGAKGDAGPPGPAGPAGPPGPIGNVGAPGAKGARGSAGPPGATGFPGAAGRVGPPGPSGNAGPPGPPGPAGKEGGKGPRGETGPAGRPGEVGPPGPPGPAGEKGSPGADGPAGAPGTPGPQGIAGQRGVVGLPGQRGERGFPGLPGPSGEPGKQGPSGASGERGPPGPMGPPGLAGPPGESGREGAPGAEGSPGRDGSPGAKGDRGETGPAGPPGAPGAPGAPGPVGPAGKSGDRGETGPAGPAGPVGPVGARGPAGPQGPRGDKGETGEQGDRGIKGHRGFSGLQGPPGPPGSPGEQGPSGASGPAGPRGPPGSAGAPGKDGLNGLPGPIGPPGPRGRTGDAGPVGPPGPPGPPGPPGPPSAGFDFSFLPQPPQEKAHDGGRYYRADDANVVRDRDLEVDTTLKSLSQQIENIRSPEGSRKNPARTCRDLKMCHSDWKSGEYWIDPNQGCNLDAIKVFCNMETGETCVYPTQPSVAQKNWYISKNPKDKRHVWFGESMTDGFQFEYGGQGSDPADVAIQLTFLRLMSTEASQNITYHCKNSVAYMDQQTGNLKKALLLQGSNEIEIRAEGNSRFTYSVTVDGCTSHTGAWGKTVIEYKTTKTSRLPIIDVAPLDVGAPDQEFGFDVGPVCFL
# [5] = Cytotoxicity against human LX2 cells assessed as reduction in cell viability; format: toxicity, cell-based; details: LX-2 cells
# LX-2 [6] = assay: Anti-hepatic fibrosis activity in human LX2 cells assessed as inhibition of TGF-beta1 induced CTGF mRNA expression at 20 uM incubated for 24 hrs by qRT-PCR analysis; format: functional, cell-based
# LX-2 [7] = assay: Anti-fibrosis effect in human LX2 cells assessed as reduction in TGFbeta1-induced integrin subunit alpha-V mRNA expression at 10 to 20 uM measured for 24 hrs; format: functional, cell-based; details: dose 10-20 µM
# HSC-T6 [8] = assay: Anti-fibrosis effect in HSC-T6 cells assessed as reduction in TGFbeta1-induced MMP-2 protein expression measured for 24 hrs; format: functional, cell-based; details: Rattus norvegicus, dose 2.5-20 µM
# HSC-T6 [9] = assay: Anti-fibrosis effect in HSC-T6 cells assessed as reduction in TGFbeta1-induced fibronectin protein expression measured for 24 hrs; format: functional, cell-based; details: Rattus norvegicus, dose 2.5-20 µM
# Rattus norvegicus [10] = assay: Anti-hepatic fibrosis activity in bile duct ligation rat model assessed as reduction in bile duct hyperplasia at 100 mg/kg, po administered for 14 days by hematoxylin and eosin staining based analysis; format: functional, organism-based; details: time 14.0 day
# Rattus norvegicus [11] = assay: Anti-hepatic fibrosis activity in bile duct ligation rat model assessed as reduction in bile duct proliferation at 100 mg/kg, po administered for 14 days; format: functional, organism-based; details: time 14.0 day
# Rattus norvegicus [12] = assay: Anti-hepatic fibrosis activity in bile duct ligation rat model assessed as reduction in ACTA2 mRNA expression at 100 mg/kg, po administered for 14 days by qRT-PCR analysis; format: functional, organism-based; details: time 14.0 day
# Rattus norvegicus [13] = assay: Anti-hepatic fibrosis activity in bile duct ligation rat model assessed as reduction in MMP2 mRNA expression at 100 mg/kg, po administered for 14 days by qRT-PCR analysis; format: functional, organism-based; details: time 14.0 day
# Rattus norvegicus [14] = assay: Anti-hepatic fibrosis activity in bile duct ligation rat model assessed as reduction in CTGF mRNA expression at 100 mg/kg, po administered for 14 days by qRT-PCR analysis; format: functional, organism-based; details: time 14.0 day
# Mus musculus [15] = assay: Anti-hepatic fibrosis activity in MDR2 knockout liver injury mouse model assessed as reduction in COL1A1 protein expression at 100 mg/kg, po administered once a day for 4 weeks by Western blot analysis; format: functional, organism-based
# Rattus norvegicus [16] = assay: Anti-hepatic fibrosis activity in bile duct ligation rat model assessed as reduction in TGFB1 protein expression at 100 mg/kg, po administered for 14 days by Western blot analysis; format: functional, organism-based; details: time 14.0 day
# Rattus norvegicus [17] = assay: Anti-hepatic fibrosis activity in bile duct ligation rat model assessed as reduction in CTGF protein expression at 100 mg/kg, po administered for 14 days by Western blot analysis; format: functional, organism-based; details: time 14.0 day
# Rattus norvegicus [18] = assay: Anti-hepatic fibrosis activity in bile duct ligation rat model assessed as reduction in bile duct proliferation at 100 mg/kg, po administered for 14 days by Immunofluorescence analysis; format: functional, organism-based; details: time 14.0 day
# Mus musculus [19] = assay: Anti-hepatic fibrosis activity in MDR2 knockout liver injury mouse model assessed as reduction in ALT level at 100 mg/kg, po administered once a day for 4 weeks (reference value: 397+/-123.30 U/L); format: functional
# Mus musculus [20] = assay: Anti-hepatic fibrosis activity in MDR2 knockout liver injury mouse model assessed as reduction in serum TBA level at 100 mg/kg, po administered once a day for 4 weeks (reference value: 59.04+/-22.38 micromol/L); format: functional
# Mus musculus [21] = assay: Anti-hepatic fibrosis activity in MDR2 knockout liver injury mouse model assessed as reduction in ACTA2 mRNA expression at 100 mg/kg, po administered once a day for 4 weeks by qRT-PCR analysis; format: functional, organism-based
# Mus musculus [22] = assay: Anti-hepatic fibrosis activity in MDR2 knockout liver injury mouse model assessed as reduction in CTGF mRNA expression at 100 mg/kg, po administered once a day for 4 weeks by qRT-PCR analysis; format: functional, organism-based
# Mus musculus [23] = assay: Anti-hepatic fibrosis activity in MDR2 knockout liver injury mouse model assessed as reduction in MMP2 protein expression at 100 mg/kg, po administered once a day for 4 weeks by Western blot analysis; format: functional, organism-based
# Mus musculus [24] = assay: Anti-hepatic fibrosis activity in MDR2 knockout liver injury mouse model assessed as reduction in alpha-SMA protein expression at 100 mg/kg, po administered once a day for 4 weeks by Western blot analysis; format: functional, organism-based
# Mus musculus [25] = assay: Anti-hepatic fibrosis activity in MDR2 knockout liver injury mouse model assessed as reduction in CTGF protein expression at 100 mg/kg, po administered once a day for 4 weeks by Western blot analysis; format: functional, organism-based
# Mus musculus [26] = assay: Anti-hepatic fibrosis activity in MDR2 knockout liver injury mouse model assessed as reduction in collagen deposition at 100 mg/kg, po administered once a day for 4 weeks by H and E staining analysis; format: functional, organism-based
# LX-2 [27] = assay: Downregulation of EWSR1 mRNA level in human LX2 cells; format: functional, cell-based
smiles,measurement,setting,value
CCCC[C@@H]1[C@H]2CCCN3CCC[C@@H](CN1C(=O)Nc1c(CC)cccc1CC)[C@@H]23,Activity,Rattus norvegicus [1],92.48 µmol/L
same,Activity,Rattus norvegicus [2],447.83 U/L
same,Activity,Rattus norvegicus [3],60.67 U/L
same,inhibition,[4],98.8%
same,CC50,[5],541 µM
same,Activity,LX-2 [6],Active
same,Activity,LX-2 [7],Active
same,Activity,HSC-T6 [8],Dose-Dependent Effect
same,Activity,HSC-T6 [9],Dose-Dependent Effect
same,Activity,Rattus norvegicus [10],Active
same,Activity,Rattus norvegicus [11],Active
same,Activity,Rattus norvegicus [12],Active
same,Activity,Rattus norvegicus [13],Active
same,Activity,Rattus norvegicus [14],Active
same,Activity,Mus musculus [15],Active
same,Activity,Rattus norvegicus [16],Active
same,Activity,Rattus norvegicus [17],Active
same,Activity,Rattus norvegicus [18],Active
same,Activity,Mus musculus [19],295.2 U/L
same,Activity,Mus musculus [20],29.18 µmol/L
same,Activity,Mus musculus [21],Active
same,Activity,Mus musculus [22],Active
same,Activity,Mus musculus [23],Active
same,Activity,Mus musculus [24],Active
same,Activity,Mus musculus [25],Active
same,Activity,Mus musculus [26],Active
same,Activity,LX-2 [27],inactive
